Measured values taken from patent US7572765B2, “Conformationally constrained parathyroid hormone (PTH) analogs” (The General Hospital Corporation, priority 2001, dated 2009).
Square brackets hold non-standard residues; d marks the D form. Peptide text beside a SMILES is read from it. hArg = N=C(N)NCCCC[C@H](N)C(=O)O; Aib = CC(C)(N)C(=O)O

What was measured:
[1] = biological target: T1, P1R-delNt, truncated human P1R deleted for residues (24-181) (Homo sapiens, UniProt Q03431); test: Competition binding in COS-7 cells expressing hP1R-delNt; details: for Binding IC50 / IC50: COS-7 cells, hP1R-delNT, tracer 125I-[Aib^1,3,M]PTH(1-21), N.B. = no inhibition of tracer binding
T1 construct: expressed in transfected cells; host or cells: COS-7 (transient, FuGENE 6)
T1 sequence (Q03431 with tags, fused parts or gaps limits assumed): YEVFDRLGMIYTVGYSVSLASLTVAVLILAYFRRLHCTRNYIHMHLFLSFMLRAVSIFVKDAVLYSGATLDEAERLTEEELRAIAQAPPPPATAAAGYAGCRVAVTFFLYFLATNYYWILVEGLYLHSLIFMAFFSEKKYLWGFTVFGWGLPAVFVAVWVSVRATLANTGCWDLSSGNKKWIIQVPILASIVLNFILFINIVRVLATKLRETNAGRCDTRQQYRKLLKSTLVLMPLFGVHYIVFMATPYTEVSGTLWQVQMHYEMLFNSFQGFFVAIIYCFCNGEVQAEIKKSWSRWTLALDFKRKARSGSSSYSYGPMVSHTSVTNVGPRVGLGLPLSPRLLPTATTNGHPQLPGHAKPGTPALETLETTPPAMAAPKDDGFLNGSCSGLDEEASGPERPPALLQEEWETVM

[2] = biological target: T1, P1R-delNt, truncated human P1R deleted for residues (24-181); test: Stimulation of inositol phosphate production (PLC) in COS-7 cells expressing hP1R-delNt; format: cell-based; details: for increase in inositol phosphate (IP) production relative to the basal level: P1R-delNt
Description: Cell Culture. The cell line HKRK-B28 (Takasu, H., et al., J. Bone Miner. Res. 14:11-20 (1999)) was derived from the porcine kidney cell line, LLC-PK1 by stable transfection with plasmid DNA encoding the human P1R and expresses ˜280,000 receptors per cell. These cells, as well as COS-7 cells and SaOS-2-B10 cells, were cultured at […] in T-75 flasks ([…]) in Dulbecco's modified Eagle's medium (DMEM) supplemented with fetal bovine serum (10%), penicillin G (20 units/ml), streptomycin sulfate (20 μg/ml) and amphotericin B (0.05 μg/ml) in a humidified atmosphere containing 5% CO2. Stock solutions of EGTA/trypsin and antibiotics were from GIBCO; fetal bovine serum was from Hyclone Laboratories (Logan, Utah). COS-7 cells sub-cultured in 24-well plates were transfected with plasmid DNA (200 ng per well) encoding the wild-type human P1R or truncated human P1R deleted for residues (24-181) (Shimizu, M., et al., J. Biol. Chem. 275:21836-21843 (2000)) that was purified by cesium chloride/ethidium bromide density gradient centrifugation, and FuGENE 6 transfection reagent (Roche Indianapolis Ind.) according to the manufacturer's recommended procedure. All cells, in 24-well plates, were treated with fresh media and shifted to 33° C. for 12 to 24 h prior to assay.
Stimulation of Inositol Phosphate Production. COS-7 cells transfected as above with P1R-WT were treated with serum-free, inositol-free DMEM containing 0.1% bovine serum albumin and [^3H]myo-inositol (NEN, Boston, Mass.) (2 μCi/mL) for 16 h prior to assay. At the time of the assay, the cells were rinsed with binding buffer containing LiCl (30 mM) and treated with the same buffer with or without a PTH analog. The cells were then incubated at 37° C. for 40 min, after which the buffer was removed and replaced by 0.5 mL of ice cold 5% trichloroacetic acid solution. After 3 h on ice, the lysate was collected and extracted twice with ethyl ether. The lysate was then applied to an ion exchange column (0.5 mL resin bed) and the total inositol phosphates were eluted as described previously (Berridge, M. J., et al., Biochem. J. 212:473-482 (1983)), and counted in liquid scintillation cocktail.
Thus, the truncated receptor can couple to the PCL signaling pathway when stimulated with the Aib-containing PTH peptide. […] Thus, the Aib-1,3 substitutions enhance the ligand's capacity to stimulate PLC activity with P1R-WT, as well as with P1R-delNt.

[3] = Circular dichroism spectroscopy (helical content); format: physicochemical; details: for [0]222obs × 10^−3, Phos. / [0]222obs × 10^−3, Phos + TFE: 20 μM peptide; for [0]222obs × 10^−3, Phos.: 50 mM phosphate buffer pH 7.4; for [0]222obs × 10^−3, Phos + TFE / helical residues (%), Phos + TFE: 50 mM phosphate buffer with trifluoroethanol (20%); for helical residues (%), Phos + TFE / helical residues (%), Phos.: from elipticity at 222 nM; for helical residues (%), Phos.: 50 mM phosphate buffer
Description: Circular Dichroism. Circular Dichroism spectra were recorded on a Jasco model 710 spectropolarimeter; peptides were analyzed at a concentration of20 μM in 50 mM sodium phosphate buffer pH 7.4, or the same buffer containing 2,2,2-trifluoroethanol at 20% (v/v). Spectroscopic scans were preformed at 20° C. and at wavelengths between […], with data recored at each 1 nM interval. The spectral bandwidth was 1.5 nM and 8 scans were accumulated and averaged for each sample. At each wavelength, the mean residue elipticity [θ×100/l×C×n); where θ is the raw elipticity value (in dimensions of millidegree), l is the sample path length, C=is the molar peptide concentration, and n is the number of residues in the peptide (Bowen, W. P., and Jerman, J. C., Trends in Pharmacol. Sci. 16: 413-417 (1995)). The helical content of each peptide was estimated by dividing [θ] observed at 222 nM for that peptide by −28,100, which is the reported [θ]222obs for a model helical decapeptide (Bowen, W. P., and Jerman, J. C., Trends in Pharmacol. Sci. 16: 413-417 (1995)).
Circular dichroism (CD) spectroscopy was used to analyze the potential effects that the Aib substitutions had on peptide secondary structure when the peptides were free in solution. Samples were analyzed in both aqueous phosphate buffer and in phosphate buffer containing 2,2,2-trifloroethanol, an organic solvent which promotes helical structure in oligopeptides, including PTH peptide fragments (Pellegrini, M., et al., J. Biol. Chem. 273:10420-10427 (1998); Gronwald, W., et al., Biol. Chem. Hoppe Seyler 377:175-186 (1996); Barden, J. A., and Kemp, B. E., Biochemistry 32:7126-7132 (1993)). In phosphate buffer, the helical content of each peptide, estimated from the elipticity observed at 222 nM, was small (≦16%); however, [Aib^1,3,M]PTH(1-14) contained nearly twice as much helix as did [M]PTH(1-14) (16% and 8.1% respectively), as did [Aib^1,3,M]PTH(1-1l), as compared to […] (13% and 7.5% respectively, Table 4). […] The higher helical contents of these two peptides were evident not only from the negative elipticities at […] and 222 nM, but also from the positive elipticities at 192 nM (FIG. 6).

| Molecule | Binding IC50 [1] | increase in inositol phosphate (IP) production relative to the basal level [2] | [0]222obs × 10^−3, Phos. [3] | [0]222obs × 10^−3, Phos + TFE [3] | helical residues (%), Phos + TFE [3] | helical residues (%), Phos + TFE ([3]; M]PTH(1-10)) | helical residues (%), Phos. [3] | Binding IC50 ([1]; listed as native PTH(1-14)) | IC50 [1] | binding affinity, fold stronger than [M]PTH(1-14) ([1]; P1R-delNt) | difference in affinity between [Aib^1,3,M]PTH(1-14) and [Aib^1,3,M]PTH(1-21) ([1]; P1R-delNt) | PLC EMAX(obs.) ([2]; hP1R-delNT) | EC50 ([2]; hP1R-delNT, dash = no PLC response observed) |
| --- | --- | --- | --- | --- | --- | --- | --- | --- | --- | --- | --- | --- | --- |
| CCCC[C@H](NC(=O)[C@H](CCCNC(=N)N)NC(=O)[C@H](CCC(=O)O)NC(=O)[C@@H](NC(=O)[C@H](CO)NC(=O)[C@H](C)NC(=O)[C@H](CC(C)C)NC(=O)[C@H](Cc1c[nH]cn1)NC(=O)[C@H](CCCCN)NC(=O)CNC(=O)[C@H](CC(C)C)NC(=O)[C@H](CC(N)=O)NC(=O)[C@H](Cc1c[nH]cn1)NC(=O)[C@H](CCCC)NC(=O)[C@H](CC(C)C)NC(=O)[C@H](CCC(N)=O)NC(=O)[C@@H](NC(=O)[C@H](CCC(=O)O)NC(=O)[C@H](CO)NC(=O)[C@@H](NC(=O)[C@H](C)N)C(C)C)[C@@H](C)CC)C(C)C)C(=O)N[C@@H](CCC(N)=O)C(=O)N[C@@H](Cc1c[nH]c2ccccc12)C(=O)N[C@@H](CC(C)C)C(=O)N[C@@H](CCCNC(=N)N)C(=O)N[C@@H](CCCCN)C(=O)N[C@@H](CCCCN)C(=O)N[C@@H](CC(C)C)C(=O)N[C@@H](CCC(N)=O)C(=O)N[C@@H](CC(=O)O)C(=O)N[C@H](C(=O)N[C@@H](Cc1c[nH]cn1)C(=O)N[C@@H](CC(N)=O)C(=O)N[C@@H](Cc1ccc(O)cc1)C(N)=O)C(C)C [PTH(1-34), [Nle^8,21, Tyr^34]PTH(1-34)amide, reference compound] | N.B. | inactive | – | – | – | – | – | – | – | – | – | – | – |
| CC[C@H](C)[C@H](NC(=O)[C@H](CCC(=O)O)NC(=O)C(C)(C)NC(=O)[C@@H](NC(=O)C(C)(C)N)C(C)C)C(=O)N[C@@H](CCC(N)=O)C(=O)N[C@@H](CC(C)C)C(=O)N[C@@H](CCSC)C(=O)N[C@@H](Cc1c[nH]cn1)C(=O)N[C@@H](CCC(N)=O)C(N)=O [[Aib^1,3,M]PTH(1-10), [Aib^1,3,Gln^10]PTH(1-10)] (H-[Aib]V[Aib]EIQLMHQ-NH2) | N.B. | – | −3.2 | −13.1 | approximately 47% | 47% | 11% | – | – | – | – | – | – |
| H-AVSEIQLMHNLGKH-NH2 [PTH(1-14), reference compound] | N.B. | – | −2.6 | −10.6 | 38% | – | 9.1% | failed to inhibit tracer binding | – | – | – | – | – |
| CC[C@H](C)[C@H](NC(=O)[C@H](CCC(=O)O)NC(=O)[C@H](C)NC(=O)[C@@H](NC(=O)[C@H](C)N)C(C)C)C(=O)N[C@@H](CCC(N)=O)C(=O)N[C@@H](CC(C)C)C(=O)N[C@@H](CCSC)C(=O)N[C@@H](Cc1c[nH]cn1)C(=O)N[C@@H](CCC(N)=O)C(=O)N[C@@H](CCCCNC(=N)N)C(=O)N[C@@H](C)C(=O)N[C@@H](CCCCN)C(=O)N[C@@H](Cc1c[nH]c2ccccc12)C(N)=O [[M]PTH(1-14), [Ala^3,12,Gln^10,Har^11,Trp^14]PTH(1-14)amide, reference compound] (H-AVAEIQLMHQ[hArg]AKW-NH2) | – | inactive | −2.3 | −11.9 | 42% | – | 8.1% | – | – | – | – | – | – |
| CC[C@H](C)[C@H](NC(=O)[C@H](CCC(=O)O)NC(=O)C(C)(C)NC(=O)[C@@H](NC(=O)C(C)(C)N)C(C)C)C(=O)N[C@@H](CCC(N)=O)C(=O)N[C@@H](CC(C)C)C(=O)N[C@@H](CCSC)C(=O)N[C@@H](Cc1c[nH]cn1)C(=O)N[C@@H](CCC(N)=O)C(=O)N[C@@H](CCCCNC(=N)N)C(=O)N[C@@H](C)C(=O)N[C@@H](CCCCN)C(=O)N[C@@H](Cc1c[nH]c2ccccc12)C(N)=O [[Aib^1,3,M]PTH(1-14), AibValAibGluIleGlnLeuMetHisGlnHarAlaLysTrp] (H-[Aib]V[Aib]EIQLMHQ[hArg]AKW-NH2) | effectively inhibited the binding | ~3 fold | −4.6 | −15.7 | 56% | – | 16% | – | ~1.5 µM | ~10 fold | 50 fold | 3.1 ± 0.2 foldxbasal | 130 ± 30 nM |
| CC[C@H](C)[C@H](NC(=O)[C@H](CCC(=O)O)NC(=O)C(C)(C)NC(=O)[C@@H](NC(=O)C(C)(C)N)C(C)C)C(=O)N[C@@H](CCC(N)=O)C(=O)N[C@@H](CC(C)C)C(=O)N[C@@H](CCSC)C(=O)N[C@@H](Cc1c[nH]cn1)C(=O)N[C@@H](CCC(N)=O)C(=O)N[C@@H](CCCCNC(=N)N)C(N)=O [[Aib^1,3,M]PTH(1-11), AibValAibGluIleGlnLeuMetHisGlnHar] (H-[Aib]V[Aib]EIQLMHQ[hArg]-NH2) | – | – | −3.7 | −16.1 | 57% | – | 13% | – | 13 µM | – | – | – | – |
